From patent US12642270B2, “Substituted thiophene carboxamides, thiophene carboxylic acids and derivatives thereof” (Bayer Aktiengesellschaft, priority 2019, dated 2026)

tested on: salicylate responsive promoter sequence of the PR1 (pathogenesis-related protein I) gene (AT2G14610); test: Example A: induction of defense gene expression in Arabidopsis thaliana (PR1 promoter-GFP reporter plants), formula (I); assay type: in vivo; conditions: 300 ppm, 3rd day after spraying, mock treated leaves = 1.00
Description: (§1) Arabidopsis thaliana reporter plants containing the coding sequence of a green fluorescent protein (GFP) linked to the salicylate responsive promoter sequence of the PR1 (pathogenesis-related protein I) gene (AT2G14610) were grown for five days and then sprayed with compounds. On the 3rd day after spraying, plant fluorescence was assessed with a MacroFluo instrument from Leica Microsystems (Wetzlar, Germany). Fluorescences were quantified with the Meta-Morph Microscopy Automation & Image Analysis Software (Molecular Devices, Sunnyvale, Calif., United States).
(§2) Background fluorescence in mock treated leaves was set as 1.00.

SMILES | relative fluorescence value
O=C(O)c1ccccc1O [Salicylic acid] | 2.70

tested on: Xanthomonas campestris pv. campestris; test: Example P: Xanthomonas campestris pv. campestris in vitro cell test, formula (II); assay type: cell-based; conditions: 20 ppm of active ingredient, 24 h incubation, read-out: efficacy (inhibition of bacteria growth; no direct activity)
Description: • Solvent: DMSO • Culture medium: LB broth medium (Luria Broth Miller) Sigma • Inoculum: bacteria suspension
Compounds were solubilized in DMSO and the solution used to prepare the required range of concentrations. The final concentration of DMSO used in the assay was ≤1%.
Inoculum was prepared from a pre-culture of bacteria grown in liquid medium and diluted to the desired optical density (OD).
Compounds were evaluated for their ability to inhibit bacteria growth in liquid culture assay. The compounds were added in the desired concentrations to culture medium containing the bacteria suspension. After 24 h of incubation, the efficacy of compounds was determined by spectrometric measurement of bacteria growth. Inhibition was determined by comparing the absorbance values in wells containing the compounds with the absorbance in control wells without active ingredients.

SMILES | inhibition at 20 ppm [%]
COC(=O)c1sc(Cl)c(C#N)c1C [II.028, methyl 5-chloro-4-cyano-3-methylthiophene-2-carboxylate] | ≤ 30
Cc1c(C(=O)O)sc(C#N)c1Br [II.042, 4-bromo-5-cyano-3-methylthiophene-2-carboxylic acid] | ≤ 30
COC(=O)c1cc(Cl)c(C#N)s1 [II.046, methyl 4-chloro-5-cyanothiophene-2-carboxylate] | ≤ 30
COC(=O)c1sc(Cl)c(Cl)c1C#N [II.085, methyl 4,5-dichloro-3-cyanothiophene-2-carboxylate] | ≤ 30

tested on: not listed separately; test: Log P by HPLC on reversed phase columns (EEC directive 79/831 Annex V.A8); assay type: physicochemical; conditions: method [a]: LC-UV, acidic range, 0.1% formic acid in water and acetonitrile
Summary of the method: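 Reversed-phase HPLC per EEC 79/831 Annex V.A8, LC-UV with 10→95% acetonitrile linear gradient; eluent [a] 0.1% formic acid (acidic), [b] 0.001 M ammonium acetate (neutral), [c] 0.1% phosphoric acid (acidic). Calibrated with C3–C16 straight-chain alkan-2-ones, linear interpolation of retention times; multiple values joined by "+".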

LogP | SMILES
1.64^[a] | N#Cc1sc(C(=O)O)c(Br)c1Cl [II.097]
1.68^[a] | N#Cc1c(Cl)sc(C(=O)O)c1Br [II.098]
2.51^[a] | O=C(O)c1sc(C(F)F)c(Br)c1Br [II.099]
1.48^[a] | N#Cc1cc(C(=O)O)sc1Br [II.100]
2.45^[a] | Cc1c(C(=O)O)sc(F)c1Cl [II.101]
2.53^[a] | Cc1c(C(=O)O)sc(F)c1Br [II.102]
1.71^[a] | N#Cc1c(C(=O)O)sc(Br)c1Br [II.104]

same assay, conditions: reversed phase HPLC columns, method [a]: LC-UV, acidic range, 0.1% formic acid in water and acetonitrile

chromatographic logP | SMILES
2.98 | COC(=O)c1sc(Cl)c(C#N)c1C [II.028, methyl 5-chloro-4-cyano-3-methylthiophene-2-carboxylate]
2.01 | Cc1c(C(=O)O)sc(C#N)c1Br [II.042, 4-bromo-5-cyano-3-methylthiophene-2-carboxylic acid]
2.52 | COC(=O)c1cc(Cl)c(C#N)s1 [II.046, methyl 4-chloro-5-cyanothiophene-2-carboxylate]
2.98 | COC(=O)c1sc(Cl)c(Cl)c1C#N [II.085, methyl 4,5-dichloro-3-cyanothiophene-2-carboxylate]
1.61 | N#Cc1c(C(=O)O)sc(Cl)c1Cl [II.103, 4,5-dichloro-3-cyanothiophene-2-carboxylic acid]

same assay, conditions: reversed phase HPLC columns, value in preparation example, method not marked

chromatographic logP | SMILES
3.01 | COC(=O)c1sc(Cl)c(C#N)c1C [II.028, methyl 5-chloro-4-cyano-3-methylthiophene-2-carboxylate]
2.52 | COC(=O)c1cc(Cl)c(C#N)s1 [II.046, methyl 4-chloro-5-cyanothiophene-2-carboxylate]
2.98 | COC(=O)c1sc(Cl)c(Cl)c1C#N [II.085, methyl 4,5-dichloro-3-cyanothiophene-2-carboxylate]
1.61 | N#Cc1c(C(=O)O)sc(Cl)c1Cl [II.103, 4,5-dichloro-3-cyanothiophene-2-carboxylic acid]

tested on: Colletotrichum lindemuthianum; test: Example O: Colletotrichum lindemuthianum in vitro cell test, formula (II); assay type: cell-based; conditions: 144 h, 10 ppm of active ingredient, 6 days incubation, read-out: efficacy (inhibition of fungal growth; no direct activity)
Description: • Solvent: DMSO • Culture medium: 14.6 g anhydrous D-glucose (VWR), 7.1 g Mycological Peptone (Oxoid), 1.4 g granulated Yeast Extract (Merck), QSP 1 liter • Inoculum: spores suspension Fungicides were solubilized in DMSO and the solution used to prepare the required range of concentrations. The final concentration of DMSO used in the assay was: ≤[…]1%. A spore suspension of C. lindemuthianum was prepared and diluted to the desired spore density. Fungicides were evaluated for their ability to inhibit spores germination and mycelium growth in liquid culture assay. The compounds were added in the desired concentration to the culture medium with spores. After 6 days incubation, fungi-toxicity of compounds was determined by spectrometric measurement of mycelium growth. Inhibition of fungal growth was determined by comparing the absorbance values in wells containing the fungicides with the absorbance in control wells without fungicides.

SMILES | inhibition at 10 ppm [%]
COC(=O)c1sc(Cl)c(C#N)c1C [II.028, methyl 5-chloro-4-cyano-3-methylthiophene-2-carboxylate] | ≤ 30
Cc1c(C(=O)O)sc(C#N)c1Br [II.042, 4-bromo-5-cyano-3-methylthiophene-2-carboxylic acid] | ≤ 30
COC(=O)c1cc(Cl)c(C#N)s1 [II.046, methyl 4-chloro-5-cyanothiophene-2-carboxylate] | ≤ 30
COC(=O)c1sc(Cl)c(Cl)c1C#N [II.085, methyl 4,5-dichloro-3-cyanothiophene-2-carboxylate] | ≤ 30

same assay, conditions: 144 h, 20 ppm of active ingredient, 6 days incubation, read-out: efficacy (inhibition of fungal growth; no direct activity)

SMILES | inhibition at 20 ppm [%]
COC(=O)c1sc(Cl)c(C#N)c1C [II.028, methyl 5-chloro-4-cyano-3-methylthiophene-2-carboxylate] | ≤ 30
Cc1c(C(=O)O)sc(C#N)c1Br [II.042, 4-bromo-5-cyano-3-methylthiophene-2-carboxylic acid] | ≤ 30
COC(=O)c1cc(Cl)c(C#N)s1 [II.046, methyl 4-chloro-5-cyanothiophene-2-carboxylate] | ≤ 30
COC(=O)c1sc(Cl)c(Cl)c1C#N [II.085, methyl 4,5-dichloro-3-cyanothiophene-2-carboxylate] | ≤ 30

tested on: salicylate responsive promoter sequence of the PR1 (pathogenesis-related protein I) gene (AT2G14610); test: Example K: induction of defense gene expression in Arabidopsis thaliana (PR1 promoter-GFP reporter plants), formula (II); assay type: in vivo; conditions: 300 ppm, 3rd day after spraying, mock treated leaves = 1.00
Description: as §1, §2

SMILES | relative fluorescence value
O=C(O)c1ccccc1O [Salicylic acid] | 2.70
